Measured values published in patent US8183270B2, “Insecticidal N-substituted (2-substituted-1,3-thiazol)alkyl sulfoximines” (Dow AgroSciences, LLC, priority 2006, dated 2012).

Tested on: cotton aphid (Aphis gossypii)
Assay: Insecticidal test for cotton aphid in foliar spray assay
Assay type: in vivo
Settings: 50 ppm, foliar spray on squash cotyledons, 3 days after treatment, Corrected % Control (Abbott)
Description: The compounds identified in the foregoing examples (compounds 1-5) and in Table 1 (compounds 6-18) were tested against cotton aphid using procedures described hereinafter. Insecticidal Test for Cotton Aphid (Aphis gossypii) in Foliar Spray Assay Squash with fully expanded cotyledon leaves were trimmed to one cotyledon per plant and infested with cotton aphid (wingless adult and nymph) 1 day prior to chemical application. Each plant was examined before chemical application to ensure proper infestation (ca. 30-70 aphids per plant). Compounds (2 mg) were dissolved in 2 ml of acetone:methanol (1:1) solvent, forming stock solutions of 1000 ppm. The stock solutions were diluted 5× with 0.025% Tween 20 in H2O to obtain the highest test solution at 200 ppm. A lower test concentration (50 ppm) was prepared by making sequential a 4× dilution from the 200 ppm solution with a diluent consisting 80 parts of 0.025% Tween 20 in H2O and 20 parts of acetone:methanol (1:1). A hand-held Devilbiss sprayer was used to apply the spray solutions until runoff to both sides of the squash cotyledon leaves. Four plants (4 replications) were used for each concentration of each compound. Reference plants (solvent check) were sprayed with the diluent only. Treated plants were held in a holding room for 3 days at approximately 23° C. and 40% RH before the number of live aphids on each plant was recorded. Insecticidal activity was measured by Corrected % Control using Abbott's correction formula and the values for the lower test concentrations are presented in Table 1: Corrected % Control=100*(X−Y)/X • where X=No. of live aphids on solvent check plants • Y=No. of live aphids on treated plants CA 200 refers to % control at 200 ppm against cotton aphid in foliar spray tests, CA 50 refers to % control at 50 ppm against cotton aphid in foliar spray tests, In each case of Table 2 the rating scale is as follows: […]

Row | SMILES | CA 50 (% control at 50 ppm against cotton aphid in foliar spray tests)
1 | N#CN=S1(=O)CCCC1Cc1cnc(C(F)(F)F)s1 (stereo not drawn) [Compound 4, 1-Oxo-2-(2-trifluoromethyl-thiazol-5-ylmethyl)-tetrahydro-1-λ^6-thiophen-1-ylidene-cyanamide] | A (90-100)
2 | CC(c1cnc(C(F)(F)F)s1)S(C)(=O)=NC#N (stereo not drawn) [Compound 3, Methyl(oxido){1-[2-(trifluoromethyl)-1,3-thiazol-5-yl]ethyl}-λ^4-sulfanylidenecyanamide] | A (90-100)
3 | CS(=O)(Cc1cnc(C(F)(F)F)s1)=NC#N (stereo not drawn) [Compound 1, Methyl(oxido){[2-(trifluoromethyl)-1,3-thiazol-5-yl]methyl}-λ^4-sulfanylidenecyanamide] | A (90-100)
4 | CS(=O)(Cc1csc(C(F)(F)F)n1)=NC#N (stereo not drawn) [Compound 5, Methyl(oxido){[2-(trifluoromethyl)-1,3-thiazol-4-yl]methyl}-λ^4-sulfanylidenecyanamide] | E (50-59)
5 | CC(C)(c1cnc(C(F)(F)F)s1)S(C)(=O)=NC#N (stereo not drawn) [Compound 2, Methyl(oxido){1-methyl-1-[2-(trifluoromethyl)-1,3-thiazol-5-yl]ethyl}-λ^4-sulfanylidenecyanamide] | C (70-79)

Same assay, conditions: 200 ppm, foliar spray on squash cotyledons, 3 days after treatment, Corrected % Control (Abbott)

Row | SMILES | CA 200 (% control at 200 ppm against cotton aphid in foliar spray tests)
6 | N#CN=S1(=O)CCCC1Cc1cnc(C(F)(F)F)s1 (stereo not drawn) [Compound 4, 1-Oxo-2-(2-trifluoromethyl-thiazol-5-ylmethyl)-tetrahydro-1-λ^6-thiophen-1-ylidene-cyanamide] | A (90-100)
7 | CC(c1cnc(C(F)(F)F)s1)S(C)(=O)=NC#N (stereo not drawn) [Compound 3, Methyl(oxido){1-[2-(trifluoromethyl)-1,3-thiazol-5-yl]ethyl}-λ^4-sulfanylidenecyanamide] | A (90-100)
8 | CS(=O)(Cc1cnc(C(F)(F)F)s1)=NC#N (stereo not drawn) [Compound 1, Methyl(oxido){[2-(trifluoromethyl)-1,3-thiazol-5-yl]methyl}-λ^4-sulfanylidenecyanamide] | A (90-100)
9 | CS(=O)(Cc1csc(C(F)(F)F)n1)=NC#N (stereo not drawn) [Compound 5, Methyl(oxido){[2-(trifluoromethyl)-1,3-thiazol-4-yl]methyl}-λ^4-sulfanylidenecyanamide] | C (70-79)
10 | CC(C)(c1cnc(C(F)(F)F)s1)S(C)(=O)=NC#N (stereo not drawn) [Compound 2, Methyl(oxido){1-methyl-1-[2-(trifluoromethyl)-1,3-thiazol-5-yl]ethyl}-λ^4-sulfanylidenecyanamide] | A (90-100)

Tested on: not given
Assay: not given
Settings: not given

Row | melting point [°C] | SMILES
11 | 123 to 124 | CS(=O)(Cc1cnc(C(F)(F)F)s1)=NC#N (stereo not drawn) [Compound 1, Methyl(oxido){[2-(trifluoromethyl)-1,3-thiazol-5-yl]methyl}-λ^4-sulfanylidenecyanamide]
12 | 66 to 68 | CS(=O)(Cc1csc(C(F)(F)F)n1)=NC#N (stereo not drawn) [Compound 5, Methyl(oxido){[2-(trifluoromethyl)-1,3-thiazol-4-yl]methyl}-λ^4-sulfanylidenecyanamide]
